Results as given in patent US20050250725A1, “Regulation of the P21 gene and uses thereof” (priority 2000, published 2005).

What was measured:
[1] = system: renal cells; assay type: cell-based
Experimental: Percent apoptosis is also indicated.
Next, the cytoprotective effect of histone deacetylase inhibitors such as phenylbutyrate on renal cells was examined. Cells were control cells, or exposed to cisplatin (50 uM) alone, to phenylbutyrate (100 uM) or to phenybutyrate and cisplatin.

[2] = system: renal p21 expression; test: Renal p21 expression after cisplatin administration; assay type: in vivo
Experimental: The present invention examined the effect of p21 in protecting the renal function from cisplatin induced damage. An increase in renal p21 expression was observed after ischemia-reperfusion, urinary tract obstruction and cisplatin administration (FIG. 7). Further, to assess the significance of p21 in renal function, blood urea nitrogen was measured in mice with and without p21 gene subsequent to cisplatin administration. It was observed that the blood urea nitrogen for mice lacking the p21 gene was retained to a higher degree than the mice with p21 gene (FIG. 8).

phenylbutyrate
protection from cisplatin-induced apoptosis ([1]; prior exposure to phenylbutyrate, then cisplatin): protected from apoptosis | distribution of DNA ([1]; renal cells exposed to phenylbutyrate 100 uM and cisplatin 50 uM): normal distribution of DNA

N.N.[Cl][Pt][Cl] [cisplatin]
renal p21 expression [2]: increase
